Experimental data taken from patent US6958321B2, “Isolation, characterization, cloning and use of a mushroom lectin” (The Regents of the University of Michigan, priority 2001, dated 2005).

Columns and labels:
MOA = test: Quantitative precipitation assay with MOA; assay type: binding, Marasmius oreades; details: 20 μg MOA, PBS pH 7.2, 48 hr at 4° C.
Experimental: In other embodiments, blood group specificity of MOA is determined by quantitative precipitation assays. Quantitative microprecipitation assays with soluble cyst blood group substances and inhibition of precipitation by sugar haptens were performed as described in Mo et al., [J. Biol. Chem. 275:10623 (2000)].
For quantitative precipitation assays, 20 μg of MOA and increasing amounts of glycoprotein or polysaccharide were used in a total volume of 120 to 200 μL, all in PBS/0.15 M NaCl. Quantitative carbohydrate hapten inhibition assays were conducted by adding increasing amounts of haptens to a mixture of MOA (20 μg) and type B blood group substance (5.0 μg). The reactions were incubated at 37° C. for an hour and then at 4° C. for 48 hours followed by centrifugation of the precipitates, washing, and determination of protein by the Lowry method [Lowry, O. H. et al., J. Biol. Chem. 193, 265-275 (1951)].
Varying amounts of blood group substances from 0 to 200 μg were incubated with 20 μg of MOA in a total volume of 150 μl of PBS (pH 7.2). After 48 hr at 4° C., the amounts of protein precipitated were quantified as described above. Solid squares indicate group A substance, solid circles indicate group B substance, and solid triangles indicate group O substance.
Various amounts of glycoconjugates, ranging from 0 to 100 μg were incubated with 20 μg of lectin in a total volume of 150 μl of PBS (pH 7.2). After 48 hr at 4° C., the amounts of protein precipitated were quantified, as described above. Solid circles indicate MOA interaction with laminin, solid crosses indicate MOA interaction with bovine thyroglobulin, solid squares indicate MOA interaction with C. alata galactomannan, solid triangles indicate MOA interaction with pigeon ovalbumin, open circles indicate MOA interaction with Ga1NAcα1,3Ga1β-polyacrylamide, open squares indicate GS I-B4 interaction with pigeon ovalbumin and closed inverted triangles indicate GS I-B4 interaction with Ga1NAcα1,3Ga1β-polyacrylamide.

immobilized MOA = test: Binding to MOA-Sepharose 4B affinity column; design: species or system Marasmius oreades; details: washed with PBS, eluted with 20 mM diaminopropane
From the text: Further insight into the carbohydrate specificity of MOA was obtained by using immobilized MOA. Immobilization of MOA on a variety of supports is contemplated. In one embodiment, MOA is immobilized on a matrix that can be used in an affinity column (see below). In some embodiments, the matrix comprises Sepharose 4B beads. In some Embodiments, the MOA-conjugated Sepharose 4B beads are packed in a column for binding and affinity isolation and purification studies. Briefly, the MOA-Sepharose column is loaded with glycan, glycoconjugate or serum sample to be tested, then washed with an appropriate buffer (including but not limited to PBS). Bound components are eluted with a suitable elution buffer (including but not limited to 1,3-diaminopropane in NaCl), and the collected fractions are analyzed for the presence of protein or glycan (see Example 6 below). The fractions containing the bound components (eluted as described herein) can be pooled and concentrated.
MOA was immobilized on cyanogen bromide-activated Sepharose 4B as follows. 1.5 g of cyanogen bromide-activated Sepharose 4B was allowed to swell in 100 ml of 1 mM HCl solution for 30 min. The supernatant was removed and the swollen beads (6 ml) were filtered on a sintered funnel, washed several times with 100 ml of 1 mM HCl and finally with 20 ml of 0.1 M sodium bicarbonate buffer, pH 8.3, containing 0.5 M sodium chloride. The beads were quickly transferred to a plastic bottle containing 16.2 mg MOA in the same buffer (10 ml) containing 0.2 M lactose. The plastic bottle was shaken at room temperature for 6 hr and at 4° C. overnight. The beads were filtered on a sintered glass funnel, washed with the coupling buffer, and then shaken in 1 M ethanolamine (12 ml) at room temperature for 2.5 hr to cap all of the unreacted iminocarbonate groups. The beads were filtered, washed alternately with the coupling buffer then sodium acetate buffer (0.1 M, pH 4.0 containing 0.5 M NaCl) four times. A column (1×7 cm) packed with the beads was finally washed with PBS containing 0.04% sodium azide. The beads contained 2.3 mg MOA per ml Sepharose 4B, based on MOA remaining in solution.
In order to assess the binding of various glycans, glycoconjugates and serum samples to MOA-Sepharose, the following general procedure was used. The MOA-Sepharose column was loaded with glycan, glycoconjugate or serum sample (0.6-5 ml) and washed with PBS (15 ml). The bound components were eluted with 20 mM 1,3-diaminopropane in 0.15 M NaCl (15 ml). The fractions collected (1 ml) were neutralized with 1 M phosphoric acid (approximately 16 μl), and analyzed by either absorbance at 280 nm for protein, or by phenol-sulfuric acid assay, as described by Dubois et al. [Anal. Chem. 28: 350 (1956)] for the glycan. The column was finally washed thoroughly with PBS. The fractions containing the bound components were pooled and concentrated by Amicon ultrafiltration (Millipore Corp., Bedford, Mass.) using a membrane (YM10) of 10,000 molecular weight cut-off.

[1] = biological target: T1, alpha-Galactosidase-digested alpha2-macroglobulin glycoprotein (from volunteer 4) (human, UniProt P01023 24-1474, terminal alpha-galactose removed with alpha-galactosidase); test: agar gel diffusion, precipitin
T1 construct: mature; also called alpha-Galactosidase-digested glycoprotein from volunteer 4; treated fractions containing principally alpha2-macroglobulin
T1 sequence (looked up): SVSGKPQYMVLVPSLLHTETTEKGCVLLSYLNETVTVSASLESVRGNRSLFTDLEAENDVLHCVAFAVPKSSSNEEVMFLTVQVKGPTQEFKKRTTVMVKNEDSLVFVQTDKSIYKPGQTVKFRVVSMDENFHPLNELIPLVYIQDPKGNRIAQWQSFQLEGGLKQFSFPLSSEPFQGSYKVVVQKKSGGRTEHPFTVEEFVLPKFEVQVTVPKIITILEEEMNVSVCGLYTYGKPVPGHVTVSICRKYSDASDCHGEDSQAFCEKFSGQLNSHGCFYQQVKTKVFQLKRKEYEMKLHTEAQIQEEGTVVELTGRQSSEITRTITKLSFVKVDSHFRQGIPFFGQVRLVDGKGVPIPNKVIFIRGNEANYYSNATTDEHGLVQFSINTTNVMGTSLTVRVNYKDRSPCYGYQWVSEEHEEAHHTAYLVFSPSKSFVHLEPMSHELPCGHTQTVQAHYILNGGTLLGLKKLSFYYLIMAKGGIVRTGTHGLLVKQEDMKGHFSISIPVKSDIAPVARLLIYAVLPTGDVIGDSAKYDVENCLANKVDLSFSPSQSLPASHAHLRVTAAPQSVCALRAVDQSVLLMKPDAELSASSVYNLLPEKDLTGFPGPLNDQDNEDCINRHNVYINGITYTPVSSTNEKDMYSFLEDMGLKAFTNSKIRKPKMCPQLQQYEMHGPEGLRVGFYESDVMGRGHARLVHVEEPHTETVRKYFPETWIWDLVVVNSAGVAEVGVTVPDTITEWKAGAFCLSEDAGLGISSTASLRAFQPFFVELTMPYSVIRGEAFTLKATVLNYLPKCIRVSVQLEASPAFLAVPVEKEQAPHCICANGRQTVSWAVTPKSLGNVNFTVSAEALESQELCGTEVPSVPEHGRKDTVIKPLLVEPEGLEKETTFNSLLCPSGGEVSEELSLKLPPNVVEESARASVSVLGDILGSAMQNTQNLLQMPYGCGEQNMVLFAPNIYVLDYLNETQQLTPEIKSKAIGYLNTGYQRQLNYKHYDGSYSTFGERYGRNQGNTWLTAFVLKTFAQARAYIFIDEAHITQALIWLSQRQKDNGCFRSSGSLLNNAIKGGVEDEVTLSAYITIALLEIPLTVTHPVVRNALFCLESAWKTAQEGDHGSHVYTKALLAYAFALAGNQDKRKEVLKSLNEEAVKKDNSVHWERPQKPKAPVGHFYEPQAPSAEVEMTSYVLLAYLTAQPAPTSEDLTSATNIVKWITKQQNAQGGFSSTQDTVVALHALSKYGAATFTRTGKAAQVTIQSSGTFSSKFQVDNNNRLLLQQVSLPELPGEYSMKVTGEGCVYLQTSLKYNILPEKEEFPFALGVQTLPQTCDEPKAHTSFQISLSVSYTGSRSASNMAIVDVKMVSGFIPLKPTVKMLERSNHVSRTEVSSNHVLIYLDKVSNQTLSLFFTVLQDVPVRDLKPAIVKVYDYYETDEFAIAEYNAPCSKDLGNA

Asialofetuin = biological target: T2, Asialofetuin (UniProt P12763 19-359, desialylated glycans with terminal Gal-beta-1,4-GlcNAc); test: affinity chromatography on MOA-Sepharose 4B, PBS wash then elution with 20 mM 1,3-diaminopropane in 0.15 M NaCl, A280 of 1 ml fractions
T2 sequence (looked up): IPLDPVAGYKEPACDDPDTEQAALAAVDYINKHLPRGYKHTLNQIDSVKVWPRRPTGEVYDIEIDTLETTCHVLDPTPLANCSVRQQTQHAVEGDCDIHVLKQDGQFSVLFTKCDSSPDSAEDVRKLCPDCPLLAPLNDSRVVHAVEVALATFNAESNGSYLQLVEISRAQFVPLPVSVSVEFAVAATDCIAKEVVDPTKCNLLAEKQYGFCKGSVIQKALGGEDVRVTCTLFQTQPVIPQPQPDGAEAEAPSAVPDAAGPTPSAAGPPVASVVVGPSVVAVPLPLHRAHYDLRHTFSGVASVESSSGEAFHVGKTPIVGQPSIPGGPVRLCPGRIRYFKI

[2] = Solubility and activity of salt-free lyophilisates; assay type: physicochemical
Experimental: Purification of recombinant MOA and native intact MOA-Recombinant MOA was purified from the soluble fraction by absorption on a column of melibiose-Sepharose and elution by lactose. Further purification was carried out on an affinity column of Synsorb B. Except for the diaminopropane elution, all affinity purifications were carried out in PBS, pH 7.2, containing 1.25 mM EDTA. After purification, lectin solutions were dialyzed against distilled water and lyophilized. […] Intact native MOA was prepared with a purification procedure (Example 2) that utilized a protease inhibitor cocktail (product P8215, Sigma, St. Louis, Mo.) which was added at the level of 0.1 ml/100 ml extract buffer (instead of phenylmethylsulfonyl fluoride), all buffers lacked Ca^++ and contained 1.25 mM EDTA, and the initial extraction and ammonium sulfate fractionations were carried out under an atmosphere of argon.

Molecule: bovine thyroglobulin: bovine thyroglobulin, with Galα1,3Galβ1,4GlcNAc end groups
- precipitation with MOA (MOA): reacted strongly
- binding to MOA-Sepharose column (immobilized MOA): bound tightly

Molecule: laminin: Laminin purified from the EHS sarcoma, with Galα1,3Galβ1,4GlcNAc end groups
- precipitation with MOA (MOA): reacted strongly
- binding to MOA-Sepharose column (immobilized MOA): bound tightly

Molecule: Galactomannan
- precipitation with MOA (MOA): did not precipitate
- binding to MOA-Sepharose column (immobilized MOA): failed to bind

B1: Lotus lectin (other, UniProt P19664 1-240, looked up)
chain: VSFNYTEFKDDGSLILQGDAKIWTDGRLAMPTDPLVNNPKTTRSAGRALYATPVPIWDSATGNVASFVTSFNFLFVIRELKYTPTDGLVFFLAPVGTEIPSGSTGGFLGIFDGSNGFNQFVAVEFDSYHNIWDPKSLRSSHVGIDVNSIMSLKAVNWNRVSGSLEKATIIYDSQTNILSVVMTSQNGQITTIYGTIDLKTVLPEKVSVGFSATTGNPEREKHDIYSWSFTSTLKEPEEQA
- binding result [1]: no binding

B2: Ulex europaeus I lectin (other, UniProt P22972 1-243, looked up)
chain: SDDLSFKFKNFSQNGKDLSFQGDASVIETGVLQLNKVGNNLPDETGGIARYIAPIHIWNCNTGEVASFITSFSFFMETSANPKAATDGLTFFLAPPDSPLRRAGGYFGLFEDTKDNDSSYQTVAVEFDTIGSPVNFDDPGFPHIGIDVNRVKSINAERWNKRYGLNNVANVEIIYEASSKTLTASLTYPSDQTSISVTSIVDLKEILPEWVSVGFSGGTYIGRQATHEVLNWYFTSNLINTNS
notes: also called Ulex I
- binding result [1]: binds

B3: Intact native Marasmius oreades agglutinin (MOA) prepared by the method of Example 2 (other)
chain: MSLRRGIYHIENAGVPSAIDLKDGSSSDGTPIVGWQFTPDTINWHQLWLAEPIPNVADTFTLCNLFSGTYMDLYNGSSEAGTAVNGWQGTAFTTNPHQLWTIKKSSDGTSYKIQNYGSKTFVDLVNGDSSDGAKIAGWTGTWDEGNPHQKWYFNRMSVSSAEAQAAIARNPHIHGTYRGYILDGEYLVLPNATFTQIWKDSGLPGSKWREQIYDCDDFAIAMKAAVGKWGADSWKANGFAIFCGVMLGVNKAGDAAHAYNFTLTKDHADIVFFEPQNGGYLNDIGYDSYMAFY
modifications: blocked N-terminus (possibly N-acetyl)
notes: also called native MOA; immobilized MOA
- binding result (Asialofetuin): no binding

B4: Recombinant MOA: MOA expressed in E. coli from a pT7 vector and affinity purified (protein)
chain: MSLRRGIYHIENAGVPSAIDLKDGSSSDGTPIVGWQFTPDTINWHQLWLAEPIPNVADTFTLCNLFSGTYMDLYNGSSEAGTAVNGWQGTAFTTNPHQLWTIKKSSDGTSYKIQNYGSKTFVDLVNGDSSDGAKIAGWTGTWDEGNPHQKWYFNRMSVSSAEAQAAIARNPHIHGTYRGYILDGEYLVLPNATFTQIWKDSGLPGSKWREQIYDCDDFAIAMKAAVGKWGADSWKANGFAIFCGVMLGVNKAGDAAHAYNFTLTKDHADIVFFEPQNGGYLNDIGYDSYMAFY
- solubility of salt-free lyophilisates ([2]; distilled water or buffer): readily soluble
- agglutinating activity after lyophilisation ([2]; redissolved lyophilisates): retention of full agglutinating activity
